According to US20230248741A1, “Compositions and Methods for Lowering Triglycerides in a Subject with Reduced Kidney Function and Diabetes Mellitus” (Amarin Pharmaceuticals Ireland Limited, priority 2018, published 2023):

Tests used:
[1] = Essential fatty acids in plasma and RBC by gas chromatography, 6-week AAMI study; format: in vivo, human
Description: Blood samples (10 mL) were collected at Visit 1 (screening) and at Visits 4, 5, and 6. Analysis was performed by MSR Lipid Analysis, Scottish Crop Research Institute, Dundee, UK. The screening sample acted as baseline for the EFA measurements. Lipid was extracted from plasma, serum, and RBC suspensions and converted into fatty acid methyl esters which were analyzed by gas chromatography to give fatty acid profiles as micrograms fatty acid per gram of sample (mFA/g) and normalized area percent.
RBC and plasma EFA data were collected at baseline, Day 14, 28, and 42 and summarized by visit for each treatment group. Change from baseline and percent change from baseline were also summarized. ANCOVA comparison of E-EPA dose groups and E-EPA versus placebo was performed.
Notable changes for these parameters occurred in the E-EPA treatment groups at Days 14, 28, and 42 compared to placebo.

[2] = tested on: patients with diabetes mellitus and eGFR <90 mL/min/1.73 m^2 for ≥3 months; experiment: ANCHOR post-hoc (diabetes mellitus, eGFR <90): adverse events and renal parameters; format: in vivo, human
Description: Safety assessments will include adverse events, clinical laboratory measurements (chemistry, hematology, and urinalysis), 12-lead electrocardiograms (ECGs), vital signs, and physical examinations.
CVD-related (e.g., atherogenic) parameters were analyzed in a post-hoc study of 198 patients from the multi-center, placebo-controlled, randomized double-blind, 12-week study described in Example 1. These 198 patients have reduced kidney reduced function (e.g., eGFR<90 mL/min/1.73 m^2 for ≥3 months) and diabetes mellitus.
In this study, 6 patients in the placebo group discontinued (i.e., withdrawal with consent [n=2]; adverse event [n=2]; death [n=1]; other reason [n=1] and 4 patients from the 4 g/day group discontinued (i.e., adverse event [n=3] and other reason [n=1]). The death in the placebo group was due to myocardial infarction and not considered to be assigned to the investigational agent.

CC/C=C\C/C=C\C/C=C\C/C=C\C/C=C\CCCC(=O)OCC [E-EPA, ethyl eicosapentaenoate]
AA Plasma Mean change from Baseline ([1]; 1 g daily, Day 14): -9.7 µg/g
AA RBC Mean change from Baseline ([1]; 1 g daily, Day 14): -8.1 µg/g
DGLA Plasma Mean change from Baseline ([1]; 1 g daily, Day 14): -10.4 µg/g
DGLA RBC Mean change from Baseline ([1]; 1 g daily, Day 14): -2.7 µg/g
DHA Plasma Mean change from Baseline ([1]; 1 g daily, Day 14): -6.4 µg/g
DHA RBC Mean change from Baseline ([1]; 1 g daily, Day 14): -4.6 µg/g
DPAn-3 Plasma Mean change from Baseline ([1]; 1 g daily, Day 14): 7.5 µg/g
DPAn-3 RBC Mean change from Baseline ([1]; 1 g daily, Day 14): 0.9 µg/g
AA Plasma Mean change from Baseline ([1]; 1 g daily, Day 28): -11.3 µg/g
AA RBC Mean change from Baseline ([1]; 1 g daily, Day 28): -17.0 µg/g
DGLA Plasma Mean change from Baseline ([1]; 1 g daily, Day 28): -10.6 µg/g
DGLA RBC Mean change from Baseline ([1]; 1 g daily, Day 28): -3.8 µg/g
DHA Plasma Mean change from Baseline ([1]; 1 g daily, Day 28): -6.6 µg/g
DHA RBC Mean change from Baseline ([1]; 1 g daily, Day 28): -6.4 µg/g
DPAn-3 Plasma Mean change from Baseline ([1]; 1 g daily, Day 28): 8.9 µg/g
DPAn-3 RBC Mean change from Baseline ([1]; 1 g daily, Day 28): 3.3 µg/g
AA Plasma Mean change from Baseline ([1]; 1 g daily, Day 42): -8.7 µg/g
AA RBC Mean change from Baseline ([1]; 1 g daily, Day 42): -14.2 µg/g
DGLA Plasma Mean change from Baseline ([1]; 1 g daily, Day 42): -9.4 µg/g
DGLA RBC Mean change from Baseline ([1]; 1 g daily, Day 42): -3.5 µg/g
DHA Plasma Mean change from Baseline ([1]; 1 g daily, Day 42): -5.4 µg/g
DHA RBC Mean change from Baseline ([1]; 1 g daily, Day 42): -7.0 µg/g
DPAn-3 Plasma Mean change from Baseline ([1]; 1 g daily, Day 42): 11.3 µg/g
DPAn-3 RBC Mean change from Baseline ([1]; 1 g daily, Day 42): 6.5 µg/g
AA Plasma Baseline Mean ([1]; 1 g daily, baseline): 202.5 µg/g
AA RBC Baseline Mean ([1]; 1 g daily, baseline): 171.2 µg/g
DGLA Plasma Baseline Mean ([1]; 1 g daily, baseline): 51.2 µg/g
DGLA RBC Baseline Mean ([1]; 1 g daily, baseline): 23.0 µg/g
DHA Plasma Baseline Mean ([1]; 1 g daily, baseline): 73.1 µg/g
DHA RBC Baseline Mean ([1]; 1 g daily, baseline): 66.5 µg/g
DPAn-3 Plasma Baseline Mean ([1]; 1 g daily, baseline): 21.1 µg/g
DPAn-3 RBC Baseline Mean ([1]; 1 g daily, baseline): 34.1 µg/g
AA Plasma LS Mean, 1 or 2 g versus 4 g ([1]; 1 g versus 4 g): 4.2 µg/g
AA RBC LS Mean, 1 or 2 g versus 4 g ([1]; 1 g versus 4 g): 8.4 µg/g
DGLA Plasma LS Mean, 1 or 2 g versus 4 g ([1]; 1 g versus 4 g): 3.7 µg/g
DGLA RBC LS Mean, 1 or 2 g versus 4 g ([1]; 1 g versus 4 g): 1.5 µg/g
DHA Plasma LS Mean, 1 or 2 g versus 4 g ([1]; 1 g versus 4 g): -0.8 µg/g
DHA RBC LS Mean, 1 or 2 g versus 4 g ([1]; 1 g versus 4 g): 1.0 µg/g
DPAn-3 Plasma LS Mean, 1 or 2 g versus 4 g ([1]; 1 g versus 4 g): -15.1 µg/g
DPAn-3 RBC LS Mean, 1 or 2 g versus 4 g ([1]; 1 g versus 4 g): -6.2 µg/g
AA Plasma Mean change from Baseline ([1]; 2 g daily, Day 14): -13.9 µg/g
AA RBC Mean change from Baseline ([1]; 2 g daily, Day 14): -3.1 µg/g
DGLA Plasma Mean change from Baseline ([1]; 2 g daily, Day 14): -14.1 µg/g
DGLA RBC Mean change from Baseline ([1]; 2 g daily, Day 14): -2.6 µg/g
DHA Plasma Mean change from Baseline ([1]; 2 g daily, Day 14): -5.4 µg/g
DHA RBC Mean change from Baseline ([1]; 2 g daily, Day 14): -2.0 µg/g
DPAn-3 Plasma Mean change from Baseline ([1]; 2 g daily, Day 14): 17.4 µg/g
DPAn-3 RBC Mean change from Baseline ([1]; 2 g daily, Day 14): 5.6 µg/g
AA Plasma Mean change from Baseline ([1]; 2 g daily, Day 28): 21.6 µg/g
AA RBC Mean change from Baseline ([1]; 2 g daily, Day 28): -14.1 µg/g
DGLA Plasma Mean change from Baseline ([1]; 2 g daily, Day 28): -16.2 µg/g
DGLA RBC Mean change from Baseline ([1]; 2 g daily, Day 28): -4.5 µg/g
DHA Plasma Mean change from Baseline ([1]; 2 g daily, Day 28): -8.1 µg/g
DHA RBC Mean change from Baseline ([1]; 2 g daily, Day 28): -6.2 µg/g
DPAn-3 Plasma Mean change from Baseline ([1]; 2 g daily, Day 28): 19.4 µg/g
DPAn-3 RBC Mean change from Baseline ([1]; 2 g daily, Day 28): 9.4 µg/g
AA Plasma Mean change from Baseline ([1]; 2 g daily, Day 42): -27.3 µg/g
AA RBC Mean change from Baseline ([1]; 2 g daily, Day 42): -18.8 µg/g
DGLA Plasma Mean change from Baseline ([1]; 2 g daily, Day 42): -17.3 µg/g
DGLA RBC Mean change from Baseline ([1]; 2 g daily, Day 42): -5.3 µg/g
DHA Plasma Mean change from Baseline ([1]; 2 g daily, Day 42): -6.0 µg/g
DHA RBC Mean change from Baseline ([1]; 2 g daily, Day 42): -6.3 µg/g
DPAn-3 Plasma Mean change from Baseline ([1]; 2 g daily, Day 42): 19.3 µg/g
DPAn-3 RBC Mean change from Baseline ([1]; 2 g daily, Day 42): 13.2 µg/g
AA Plasma Baseline Mean ([1]; 2 g daily, baseline): 227.3 µg/g
AA RBC Baseline Mean ([1]; 2 g daily, baseline): 172.8 µg/g
DGLA Plasma Baseline Mean ([1]; 2 g daily, baseline): 53.5 µg/g
DGLA RBC Baseline Mean ([1]; 2 g daily, baseline): 23.0 µg/g
DHA Plasma Baseline Mean ([1]; 2 g daily, baseline): 75.1 µg/g
DHA RBC Baseline Mean ([1]; 2 g daily, baseline): 64.8 µg/g
DPAn-3 Plasma Baseline Mean ([1]; 2 g daily, baseline): 19.7 µg/g
DPAn-3 RBC Baseline Mean ([1]; 2 g daily, baseline): 33.2 µg/g
AA Plasma LS Mean, 1 or 2 g versus 4 g ([1]; 2 g versus 4 g): 15.6 µg/g
AA RBC LS Mean, 1 or 2 g versus 4 g ([1]; 2 g versus 4 g): 9.8 µg/g
DGLA Plasma LS Mean, 1 or 2 g versus 4 g ([1]; 2 g versus 4 g): 2.5 µg/g
DGLA RBC LS Mean, 1 or 2 g versus 4 g ([1]; 2 g versus 4 g): 1.5 µg/g
DHA Plasma LS Mean, 1 or 2 g versus 4 g ([1]; 2 g versus 4 g): 1.5 µg/g
DHA RBC LS Mean, 1 or 2 g versus 4 g ([1]; 2 g versus 4 g): 1.0 µg/g
DPAn-3 Plasma LS Mean, 1 or 2 g versus 4 g ([1]; 2 g versus 4 g): -9.5 µg/g
DPAn-3 RBC LS Mean, 1 or 2 g versus 4 g ([1]; 2 g versus 4 g): -2.5 µg/g
AA Plasma Mean (SD) change from Baseline ([1]; 4 g daily, Day 14): −27.2 (28.89) μg/g
AA RBC Mean (SD) change from Baseline ([1]; 4 g daily, Day 14): −15.7 (26.76) μg/g
DGLA Plasma Mean change from Baseline ([1]; 4 g daily, Day 14): -22.9 µg/g
DGLA RBC Mean change from Baseline ([1]; 4 g daily, Day 14): -5.3 µg/g
DHA Plasma Mean change from Baseline ([1]; 4 g daily, Day 14): -10.3 µg/g
DHA RBC Mean change from Baseline ([1]; 4 g daily, Day 14): -6.9 µg/g
DPAn-3 Plasma Mean change from Baseline ([1]; 4 g daily, Day 14): 24.5 µg/g
DPAn-3 RBC Mean change from Baseline ([1]; 4 g daily, Day 14): 5.4 µg/g
AA Plasma Mean (SD) change from Baseline ([1]; 4 g daily, Day 28): −43.7 (32.24) μg/g
AA RBC Mean (SD) change from Baseline ([1]; 4 g daily, Day 28): −22.8 (29.56) μg/g
DGLA Plasma Mean change from Baseline ([1]; 4 g daily, Day 28): -24.2 µg/g
DGLA RBC Mean change from Baseline ([1]; 4 g daily, Day 28): -7.1 µg/g
DHA Plasma Mean change from Baseline ([1]; 4 g daily, Day 28): -13.5 µg/g
DHA RBC Mean change from Baseline ([1]; 4 g daily, Day 28): -8.7 µg/g
DPAn-3 Plasma Mean change from Baseline ([1]; 4 g daily, Day 28): 29.7 µg/g
DPAn-3 RBC Mean change from Baseline ([1]; 4 g daily, Day 28): 12.4 µg/g
AA Plasma Mean (SD) change from Baseline ([1]; 4 g daily, Day 42): −48.3 (22.20) μg/g
AA RBC Mean (SD) change from Baseline ([1]; 4 g daily, Day 42): −34.4 (31.44) μg/g
DGLA Plasma Mean change from Baseline ([1]; 4 g daily, Day 42): -22.5 µg/g
DGLA RBC Mean change from Baseline ([1]; 4 g daily, Day 42): -8.0 µg/g
DHA Plasma Mean change from Baseline ([1]; 4 g daily, Day 42): -13.8 µg/g
DHA RBC Mean change from Baseline ([1]; 4 g daily, Day 42): -13.8 µg/g
DPAn-3 Plasma Mean change from Baseline ([1]; 4 g daily, Day 42): 32.0 µg/g
DPAn-3 RBC Mean change from Baseline ([1]; 4 g daily, Day 42): 16.2 µg/g
AA Plasma Baseline Mean (SD) ([1]; 4 g daily, baseline): 220.9 (42.80) μg/g
AA RBC Baseline Mean (SD) ([1]; 4 g daily, baseline): 171.0 (25.17) μg/g
DGLA Plasma Baseline Mean ([1]; 4 g daily, baseline): 57.1 µg/g
DGLA RBC Baseline Mean ([1]; 4 g daily, baseline): 24.0 µg/g
DHA Plasma Baseline Mean ([1]; 4 g daily, baseline): 78.8 µg/g
DHA RBC Baseline Mean ([1]; 4 g daily, baseline): 68.3 µg/g
DPAn-3 Plasma Baseline Mean ([1]; 4 g daily, baseline): 21.7 µg/g
DPAn-3 RBC Baseline Mean ([1]; 4 g daily, baseline): 34.5 µg/g
renal function ([2]; 4 g/day): no negative impact on renal function
Patients With TEAEs: Any TEAE ([2]; 4 g/day (n = 100)): 49 (49.0) n (%)
Patients With TEAEs: Arthralgia ([2]; 4 g/day (n = 100)): 1 (1.0) n (%)
Patients With TEAEs: Diarrhea ([2]; 4 g/day (n = 100)): 5 (5.0) n (%)
Patients With TEAEs: Nasopharyngitis ([2]; 4 g/day (n = 100)): 1 (1.0) n (%)
Patients With TEAEs: Nausea ([2]; 4 g/day (n = 100)): 3 (3.0) n (%)
patients discontinued due to adverse event ([2]; 4 g/day group, 4 discontinued in total): 3 n
serum creatinine after 12 weeks ([2]; 4 g/day, before 0.9 mg/dL, no significant change): 0.9 mg/dL
BUN after 12 weeks ([2]; 4 g/day, before 18 mg/dL, no significant change): 18 mg/dL
albumin after 12 weeks ([2]; 4 g/day, before 4.5 g/dL, no significant change): 4.5 g/dL
eGFR after 12 weeks ([2]; 4 g/day, before 75.4, no significant change): 79.1 mL/min/1.73 m^2
